The text below walks through data of patent US12617762B2, “Carboxy derivatives with antiinflamatory properties” (Sitryx Therapeutics Limited, priority 2019, dated 2026).

The test system of series [1] is mouse cryopreserved hepatocytes. Briefly: Hepatocyte stability assay, mouse. The class given is in vitro ADME. A digest of the protocol:
(§1)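 Cells and buffer-only plates are preincubated 10 min at 37° C; 10 μM test compound is then added to hepatocytes (0.5×10^6 cells/mL) and sampled to 60 min. Aliquots are crashed into acetonitrile, spun, and measured by LC-MS/MS to calculate intrinsic clearance from the decline of parent.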

Series [2] concerns NRF2 (nuclear factor erythroid 2-related factor 2). Briefly: NRF2 +/-GSH activation assay (DiscoverX PathHunter NRF2 translocation kit, U2OS cells). To be noted: for NRF2 activation +GSH Emax / NRF2 activation −GSH Emax / −GSH Emax: normalised to DMF high control. The class given is cell-based. A digest of the protocol: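 U2OS PathHunter eXpress cells, 24 h post-plating, treated with compound ±GSH (+GSH arm: 30 min compound–GSH pre-incubation, 6 mM working GSH), then 6 h at 37 °C. NRF2 nuclear translocation read by enzyme-fragment-complementation chemiluminescence; % activation normalised to DMF high and untreated low controls.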

Series [3] has as its system IL-1β cytokine output from THP-1s. Put plainly: THP-1 AlphaLISA IL-1β cytokine inhibition assay. The format is cell-based. A digest of the protocol:
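THP-1 cells differentiated with PMA for 72 h, pre-incubated with compound 30 min, then LPS-primed 24 h and Nigericin-stimulated 1 h (37° C./5% CO2). Supernatant IL-1β measured by AlphaLISA; percentage inhibition normalised to +LPS (high) and −LPS (low) plate controls.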

In series [4] the test system is IL-6 cytokine output from THP-1s. Put plainly: THP-1 AlphaLISA IL-6 cytokine inhibition assay. The class given is cell-based. The method in brief:
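THP-1 cells differentiated with PMA for 72 h, then pre-incubated with compound 30 min, stimulated with LPS 24 h, then Nigericin 1 h, all at 37° C. Supernatant IL-6 measured by AlphaLISA. Percentage inhibition normalized to +/− LPS plate controls.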
On the technique in general: Alpha assays give light when donor and acceptor beads are brought close together.

For series [5], the system named is human cryopreserved hepatocytes. Put plainly: Hepatocyte stability assay, human. The class given is in vitro ADME. A digest of the protocol: as §1
Series [6] in a line: Hepatocyte stability assay, mouse. The format is in vitro ADME. To be noted: mouse, hepatocytes; for hepatocyte CLint at 10 μM: Hepatocyte stability Clint; for half-life at 10 μM: Hepatocyte stability T½. A digest of the protocol: as §1
Series [7] in a line: Hepatocyte stability assay, human. To be noted: human, hepatocytes; for hepatocyte CLint at 10 μM: Hepatocyte stability Clint; for half-life at 10 μM: Hepatocyte stability T½. The class given is in vitro ADME. A digest of the protocol: as §1
Where [8] appears, read: Mouse hepatocytes, compound 10 μM, 0.5×10^6 cells/mL, 60 minutes (a n=2, b n=3).
[9] abbreviates: differentiated THP-1 cells, LPS then nigericin.
The mark [10] stands for this setting: Human hepatocytes, compound 10 μM, 0.5×10^6 cells/mL, 60 minutes (a n=2, c n=4).
[11] abbreviates: −GSH, Table 5 exo vs endo comparison.
Where [12] appears, read: Homo sapiens, THP-1, Table 3, head to head comparison of exo vs endo double bond compounds.
Setting [13] is: Homo sapiens, THP-1, differentiated THP-1 cells, LPS then nigericin.
Where [14] appears, read: Homo sapiens, THP-1, differentiated THP-1 cells, data from repeated experiments.
[15] abbreviates: +GSH, 30 minute compound-GSH pre-incubation, read-out: NRF2 activation +GSH EC50.
The mark [16] stands for this setting: −GSH, U2OS PathHunter cells, 6 hours compound treatment, read-out: NRF2 activation −GSH EC50.

Like-named read-outs stand apart in the source and are kept apart here.

As to `C=C(CC(=O)OCCCCCCCC)C(=O)O` [4-octyl itaconate, 4-Octyl itaconate, reference compound], the results for the “Hepatocyte stability Clint” value in series [1] (setting [8]) and in series [5] (setting [10]) were 351 μL min^−1 10^−6 cells and 401 μL min^−1 10^−6 cells, respectively. Besides, the “Hepatocyte stability T½” value in series [1] (setting [8]) and in series [5] (setting [10]) was 4 min throughout. Besides, the “NRF2 activation +GSH Emax” value in series [2] (+GSH) amounted to 148%. Also, in series [2] (−GSH), the “NRF2 activation −GSH Emax” value is recorded as 165%. Moreover, the IC50 came to 37.8 µM in series [3] (setting [9]) and 19.1 µM in series [4] (setting [9]).
On to `C=C(Cc1nc(CCCCCCCC)no1)C(=O)O` [Example 1, 2-((3-octyl-1,2,4-oxadiazol-5-yl)methyl)acrylic acid], for which the hepatocyte CLint at 10 μM in series [6] came to 118 µL/min/1e6 cells; in series [7], 115 µL/min/1e6 cells. The half-life at 10 μM in series [6] and in series [7] was 12 min in each case. For the same compound, the “stability in mouse cryopreserved hepatocytes, in words” value in series [1] (mouse, hepatocytes) is on record as “improved stability”. The “NRF2 activation +GSH Emax” value in series [2] (+GSH) was 187%. Moreover, the “NRF2 activation, result in words” value in series [2] (−GSH and/or +GSH) was “activated NRF2 more potently and with higher efficacy than 4-octyl itaconate and 2-(2-chlorobenzyl)acrylic acid”. In series [2] (−GSH), the “NRF2 activation −GSH Emax” value was determined as 243%. The “−GSH Emax” value in series [2] (setting [11]) turned out to be 243%. Also, the 50% inhibitory concentration (IC50) in series [3] (setting [12]) came out at 4.9 µM; in series [3] (Homo sapiens, THP-1, Table 3, data from repeated experiment) it was 4.7 µM; in series [3] (setting [13]), 4.9 µM; in series [3] (setting [14]) it was 4.7 µM; in series [4] (setting [13]) it was 3.7 µM; in series [4] (setting [14]), 4 µM. For the same compound, in series [3] (compared with 4-octyl itaconate and 2-(2-chlorobenzyl)acrylic acid), the “reduction of cytokine release versus comparators, in words” value was “reduced cytokine release more effectively than 4-octyl itaconate and 2-(2-chlorobenzyl)acrylic acid”. Besides, in series [5] (human, hepatocytes), the “stability in human cryopreserved hepatocytes, in words” value was “improved stability”.
As to `C=C(Cc1nc(C(F)(F)c2ccc(Br)cc2)no1)C(=O)O` [Example 90, 2-((3-((4-bromophenyl)difluoromethyl)-1,2,4-oxadiazol-5-yl)methyl)acrylic acid], the hepatocyte CLint at 10 μM in series [6] amounted to 34 µL/min/1e6 cells; in series [7], 7 µL/min/1e6 cells. In addition, the half-life at 10 μM in series [6] was found to be 56 min; in series [7], 206 min. Also, the EC50 in series [2] (setting [15]) worked out at 44 µM; in series [2] (setting [16]), 45.3 µM. Moreover, the “NRF2 activation +GSH Emax” value in series [2] (+GSH) is 130%. Besides, the “NRF2 activation −GSH Emax” value in series [2] (−GSH) came out at 172%. For the same compound, the figures for the IC50 in series [3] (setting [13]) and in series [4] (setting [13]) were 3.4 µM and 15.7 µM, respectively.
`C=C(Cc1nc(Cc2ccc(C3CCCC3)cc2)no1)C(=O)O` [Example 112, 2-((3-(4-cyclopentylbenzyl)-1,2,4-oxadiazol-5-yl)methyl)acrylic acid]: the hepatocyte CLint at 10 μM in series [6] worked out at 160 µL/min/1e6 cells; in series [7], 25 µL/min/1e6 cells. Also, the half-life at 10 μM in series [6] is 12 min; in series [7] it was 61 min. Moreover, the EC50 in series [2] (setting [15]) turned out to be 10.7 µM; in series [2] (setting [16]), 7.3 µM. In series [2] (+GSH), the “NRF2 activation +GSH Emax” value is 283%. Moreover, the “NRF2 activation −GSH Emax” value in series [2] (−GSH) turned out to be 284%. Moreover, the values for the IC50 in series [3] (setting [13]) and in series [4] (setting [13]) were 14.2 µM and 4.4 µM, respectively.
As to `C=C(Cc1ncc(CCCCCCCC)o1)C(=O)O` [Example 59, 2-((5-octyloxazol-2-yl)methyl)acrylic acid], the hepatocyte CLint at 10 μM in series [6] and in series [7] was over 460 µL/min/1e6 cells each time. The half-life at 10 μM in series [6] and in series [7] was under 3 min in each case. Further, the EC50 in series [2] (setting [15]) was 5.4 µM; in series [2] (setting [16]), 3.9 µM. Further, in series [2] (+GSH), the “NRF2 activation +GSH Emax” value was 136%. For the same compound, the “NRF2 activation −GSH Emax” value in series [2] (−GSH) came to 213%. In addition, the IC50 in series [3] (setting [13]) was determined as 6.9 µM; in series [4] (Homo sapiens, differentiated THP-1 cells, LPS then nigericin) it was 7.2 µM.
As to `C=C(Cc1noc(C(F)(F)CCCCCCC)n1)C(=O)O` [Example 83, 2-((5-(1,1-difluorooctyl)-1,2,4-oxadiazol-3-yl)methyl)acrylic acid], the hepatocyte CLint at 10 μM is over 460 µL/min/1e6 cells in series [6] and 263 µL/min/1e6 cells in series [7]. Besides, the figures for the half-life at 10 μM in series [6] and in series [7] were under 3 min and 5 min, respectively. Also, the figures for the EC50 in series [2] (setting [15]) and in series [2] (setting [16]) were 3.8 µM and 3 µM, respectively. Further, the “NRF2 activation +GSH Emax” value in series [2] (+GSH) is 161%. In series [2] (−GSH), the “NRF2 activation −GSH Emax” value amounted to 185%. Also, the IC50 in series [3] (setting [13]) was found to be 3.1 µM; in series [4] (setting [13]) it was 3.4 µM.
`C=C(Cc1nc(C(F)(F)CCCCCCC)no1)C(=O)O` [Example 88, 2-((3-(1,1-difluorooctyl)-1,2,4-oxadiazol-5-yl)methyl)acrylic acid]: the hepatocyte CLint at 10 μM is over 460 µL/min/1e6 cells in series [6] and 134 µL/min/1e6 cells in series [7]. Besides, the half-life at 10 μM in series [6] was under 3 min; in series [7] it was 12 min. For the same compound, the EC50 was determined as 3 µM in series [2] (setting [15]) and 2.8 µM in series [2] (setting [16]). In addition, in series [2] (+GSH), the “NRF2 activation +GSH Emax” value is 205%. In addition, in series [2] (−GSH), the “NRF2 activation −GSH Emax” value was 237%. The half-maximal inhibitory concentration (IC50) worked out at 3.1 µM in series [3] (setting [13]) and 2.8 µM in series [4] (setting [13]).
For `C=C(Cc1nc(CCCCCCCCC(F)(F)F)no1)C(=O)O` [Example 60, 2-((3-(9,9,9-trifluorononyl)-1,2,4-oxadiazol-5-yl)methyl)acrylic acid], the intrinsic clearance (hepatocyte CLint) at 10 μM in series [6] amounted to 257 µL/min/1e6 cells; in series [7], 137 µL/min/1e6 cells. Also, the half-life at 10 μM in series [6] was found to be 6 min; in series [7], 11 min. Besides, the results for the EC50 in series [2] (setting [15]) and in series [2] (setting [16]) were 9 µM and 8.4 µM, respectively. Further, in series [2] (+GSH), the “NRF2 activation +GSH Emax” value came out at 110%. Further, the “NRF2 activation −GSH Emax” value in series [2] (−GSH) came out at 195%. The figures for the IC50 in series [3] (setting [13]) and in series [4] (setting [13]) were 11.2 µM and 6 µM, respectively.
As to `C=C(Cc1nc(C2(c3ccc(Cl)c(F)c3)CC2)no1)C(=O)O` [Example 52, 2-((3-(1-(4-chloro-3-fluorophenyl)cyclopropyl)-1,2,4-oxadiazol-5-yl)methyl)acrylic acid], the results for the hepatocyte CLint at 10 μM in series [6] and in series [7] were 134 µL/min/1e6 cells and 24 µL/min/1e6 cells, respectively. Besides, the figures for the half-life at 10 μM in series [6] and in series [7] were 10 min and 55 min, respectively. The results for the EC50 in series [2] (setting [15]) and in series [2] (setting [16]) were over 100 µM and 15.2 µM, respectively. The “NRF2 activation +GSH Emax” value in series [2] (+GSH) amounted to 40%. Further, the “NRF2 activation −GSH Emax” value in series [2] (−GSH) was 78%. The IC50 is 19.4 µM in series [3] (setting [13]) and 25.5 µM in series [4] (setting [13]).
Consider `C=C(Cc1nc(-c2ccc(OCCCC)cc2)no1)C(=O)O` [Example 61, 2-((3-(4-butoxyphenyl)-1,2,4-oxadiazol-5-yl)methyl)acrylic acid], for which the hepatocyte CLint at 10 μM was 301 µL/min/1e6 cells in series [6] and 52 µL/min/1e6 cells in series [7]. For the same compound, the half-life at 10 μM came to 4 min in series [6] and 29 min in series [7]. Moreover, the EC50 in series [2] (setting [15]) came out at 4.9 µM; in series [2] (−GSH, Table 5 exo vs endo comparison, read-out: −GSH EC50), 3.2 µM; in series [2] (setting [16]), 3.2 µM. Further, the “NRF2 activation +GSH Emax” value in series [2] (+GSH) amounted to 124%. The “NRF2 activation −GSH Emax” value in series [2] (−GSH) is listed as 198%. Moreover, the “−GSH Emax” value in series [2] (setting [11]) was 198%. Also, the figures for the IC50 in series [3] (setting [12]), in series [3] (setting [13]) and in series [4] (setting [13]) were 13.9 µM, 13.9 µM and 3.1 µM, respectively.

As a reminder, the IC50 is the midpoint of a concentration-inhibition curve. Higher therefore signals weaker potency. As usually defined, the hepatocyte CLint is a measure of how fast metabolising enzymes remove a compound, apart from limits set by blood flow. As usually defined, the half-life is the time in which the quantity being followed falls by half. In general, EC50 refers to the concentration giving half of the maximal effect.
